Measurements published in PubChem BioAssay AID540269 (Sanford-Burnham Center for Chemical Genomics, 2011).
“And” between values parts separate entries of the source, which are not always exact repeats. Equal values may be shown once. The source made the active and inactive calls. How the calls were made is not given here.

Molecular target: glucose-6-phosphate dehydrogenase-6-phosphogluconolactonase (Plasmodium falciparum 3D7)
Experiment: PfG6PD enzyme inhibitors, kinetic NADPH readout, dose response, orthogonal assay, biochemical, kinetic NADPH detection (AID 540269)
Conditions: purified PfG6PD-6PGL

Row | Structure (SMILES) | IC50
1 | O=C1/C(=C\c2ccc([N+](=O)[O-])cc2)CS(=O)(=O)C/C1=C/c1ccc([N+](=O)[O-])cc1 | > 80 µM (inactive)
2 | O=C(Nc1ccc(N2CCN(C(=O)c3ccco3)CC2)c(Cl)c1)c1cc2ccccc2o1 | 53.8 µM
3 | N#Cc1ccc(Oc2cccc3cccnc23)c([N+](=O)[O-])c1 | > 80 µM (inactive)
4 | Cc1ccc(Cl)cc1NC1=C/C(=N\S(=O)(=O)c2cccs2)c2ccccc2C1=O | > 80 µM (inactive)
5 | O=C(O)c1ccccc1NS(=O)(=O)c1cccc(-n2sc3ccccc3c2=O)c1 | 15.3 µM
6 | O=c1c2ccccc2[se]n1-c1ccccc1 | 22.1 µM
7 | O=C(N/N=C/c1cccc([N+](=O)[O-])c1)C(=O)N1CCCCCC1 | > 80 µM (inactive)
8 | Cn1c(=O)[nH]c(=O)c2c1nc([N+](=O)[O-])n2Cc1ccccc1 | > 80 µM (inactive)
9 | Cc1cc(SCC(=O)N/N=C/c2ccco2)nc2ccccc12 | > 80 µM (inactive)
10 | COc1ccc(S(=O)(=O)Nc2cc(SCC(=O)O)c(O)c3ccccc23)cc1 | 44.9 µM
11 | c1ccc(-c2nc(N3CCOCC3)s[n+]2-c2ccccc2)cc1 | > 80 µM (inactive)
12 | CCC(CO)[n+]1c(C)cc(/C=C2\Sc3ccccc3N2Cc2ccccc2)cc1C (stereo not drawn) | 24.3 µM
13 | Cc1ccc(-c2csc(NC(=O)c3ccccc3F)c2C(=O)O)cc1 | 53.7 µM
14 | Cc1cc(C)c(S(=O)(=O)Nc2cc(SCC(=O)O)c(O)c3ccccc23)cc1C | 41.4 µM
15 | CCN(CC)CCNC(=O)CCCCn1c(=S)[nH]c2c([nH]c3ccc(OC)cc32)c1=O | 15.7 µM
16 | CCOc1ccc(Cl)cc1/C=N/NC(N)=O | 48.7 µM
17 | CCN(CC)c1nc(N)nc(NS(=O)(=O)c2ccc(Cl)cc2)n1 | > 80 µM (inactive)
18 | Cc1nnc(Sc2cc(NCCO)c([N+](=O)[O-])c3nonc23)s1 | 36.6 µM
19 | COC(=O)c1ccccc1NC1=C/C(=N\S(=O)(=O)c2cccs2)c2ccccc2C1=O | 35.7 µM and 60.4 µM
20 | NC1CCc2cc(O)c(O)cc2C1 (stereo not drawn) | 34.5 µM
21 | Cc1nnc(N/N=C/c2ccc(-c3ccccc3F)o2)n1N | 32.1 µM
22 | COc1cc(N)c2ncccc2c1SC | 38.8 µM

Row | Structure (SMILES) | IC50
23 | COc1cc(N)c2ncccc2c1Cl | 45.8 µM
24 | CCOC(=O)C1CCCN(C(=O)Cn2sc3nc(C)cc(C)c3c2=O)C1 (stereo not drawn) | 50.7 µM
25 | COc1cc(N=c2ssnc2Cl)cc(OC)c1OC | 34 µM
26 | CN1C(=O)CSc2ccc(NC(=O)N3CCc4ccccc43)cc21 | > 80 µM (inactive)
27 | NNC(=O)CN1C(c2ccccc2Br)=Nc2ccc(Br)cc2C1c1ccccc1 (stereo not drawn) | 57.2 µM
28 | NCCc1cc(O)c(O)cc1O | 39.1 µM
29 | Cc1ccsc1/C=N/NC(=O)c1cccc(S(=O)(=O)Nc2ccccc2Cl)c1 | > 80 µM (inactive)
30 | CC(=O)OCC1(C)CN(c2ccccc2)NC1=O (stereo not drawn) | > 80 µM (inactive)
31 | CC1=CC(=NOC(=O)/C=C/c2ccccc2)C=C(C)C1=O | > 80 µM (inactive)
32 | COc1cccc(CNc2ccc3[nH]c(=O)[nH]c3c2)c1OCc1ccccc1Cl | > 80 µM (inactive)
33 | Cc1cc(C)c2sc(NC(=O)C3=COCCO3)nc2c1 | 30.2 µM
34 | c1ccc(OCc2nnc3n2N=C(c2ccccc2)CS3)cc1 | > 80 µM (inactive)
35 | COc1cc(N)c2ncsc2c1 | > 80 µM (inactive)
36 | O=c1[nH]c2ccccc2n2c(-c3ccccc3)nnc12 | 13.2 µM
37 | COc1cccc(CNc2ccc3[nH]c(=O)[nH]c3c2)c1OCc1ccc(F)cc1 | > 80 µM (inactive)
38 | O=C(COC(=O)c1ccc2c(c1[N+](=O)[O-])C(=O)c1ccccc1C2=O)NC1CC1 | > 80 µM (inactive)
39 | Cc1ccc(-c2csc(NC(=O)c3ccc(Br)cc3)c2C(=O)O)cc1 | 29.7 µM
40 | CCSc1nc2cc(S(=O)(=O)N3CCOCC3)ccc2o1 | > 80 µM (inactive)
41 | COc1cc(/C=N/Nc2nncn2N)ccc1OCc1c(C)no[n+]1[O-] | > 80 µM (inactive)
42 | N#Cc1ccc2sn(-c3ccccc3)c(=O)c2c1 | 14.8 µM
43 | COc1ccc(CCn2c(NN)nc3c2c(=O)[nH]c(=O)n3C)cc1 | 22.4 µM
44 | Cn1c(=O)[nH]c(=O)c2c1nc(SCCN1CCCCC1)n2CCCc1ccccc1 | 56.7 µM

Row | Structure (SMILES) | IC50
45 | Cc1ccc(S(=O)(=O)N(C)C)cc1NC(=O)CSc1nc2ncc(Cl)cc2[nH]1 | > 80 µM (inactive)
46 | COc1ccc(OCc2nnc3n2N=C(c2ccccc2)C(CC(=O)O)S3)cc1 (stereo not drawn) | > 80 µM (inactive)
47 | COc1ccc(C(=O)c2c(C(F)(F)F)oc3c2C(=O)c2ccccc2C3=O)cc1 | > 80 µM (inactive)
48 | Nn1c(SCC(=O)Nc2cccnc2Cl)nnc1-c1ccccc1 | > 80 µM (inactive)
49 | O=C1C=CC(=O)N1CCNc1ncc(C(F)(F)F)cc1Cl | 34.8 µM
50 | O=C(Nc1nnc(S(=O)(=O)N2CCCCC2)s1)c1cccc(Br)c1 | 23.8 µM
51 | CCN(CC)c1ccc(C(=C2C=CC(=[N+](CC)CC)C=C2)c2ccccc2)cc1 | > 80 µM (inactive)
52 | O=C(COc1cccc2ccccc12)Nc1ccc(Cl)cc1C(=O)O | 33.7 µM
53 | CN(C)c1ccc(Cc2cc3c(O)ccc(O)c3cc(Cc3ccc(N(C)C)cc3)c2=O)cc1 | 54.7 µM
54 | CC1(C)CN(c2ccccc2)N(C(=O)c2ccc(C#N)cc2)C1=O | > 80 µM (inactive)
55 | CC(=O)c1cccc(NC(=O)c2cnn(-c3ccccc3)c2C)c1 | 58.4 µM
56 | O=C(Cn1sc2ccccc2c1=O)NC12CC3CC(CC(C3)C1)C2 | 13.5 µM
57 | Cc1cc(C)nc(/N=C(\N)Nc2ccccc2-c2ccccc2)n1 | > 80 µM (inactive)
58 | O=C1C=C(NCCc2cc(Br)c(O)c(Br)c2)C(=O)c2ncccc21 | > 80 µM (inactive)
59 | Cc1ccc(/C=C/C(=O)NC2CCCCCCC2)o1 | > 80 µM (inactive)
60 | C/C(Cn1nnc([N+](=O)[O-])n1)=N\NC(=O)c1ccc(O)cc1 | > 80 µM (inactive)
61 | O=C(Nc1ccc(N2CCCC2)cc1)c1cccc(-c2cc3ccccc3oc2=O)c1 | > 80 µM (inactive)
62 | CN1CCc2cc(O)cc3c2[C@H]1Cc1ccc(O)c(O)c1-3 | > 80 µM (inactive)
63 | CCn1c(N)c(C(=O)NC)sc1=S | 26.3 µM
64 | Cc1cc(C)c2c(=O)n(CC(=O)N3CCC(N4CCCCC4)CC3)sc2n1 | 48.4 µM
65 | COc1cccc(-c2c(C(=O)N/N=C/c3ccc(C)o3)nnn2-c2nonc2N)c1 | 12.7 µM
66 | Cc1ccc(S(=O)(=O)N(C(=O)c2ccncc2)c2ccc(OC(=O)c3ccncc3)c3ccccc23)cc1 | 55.7 µM

Row | Structure (SMILES) | IC50
67 | COc1ccc(C(=O)Nc2cc(Cl)ccc2C(=O)O)cc1 | 17.7 µM
68 | Cc1cc(O)c(C(C)C)cc1N=Cc1ccc([N+](=O)[O-])cc1 | > 80 µM (inactive)
69 | Cc1cc(C(=O)O)ccc1-n1c(C)cc(C=C2C(=O)c3ccccc3C2=O)c1C | > 80 µM (inactive)
70 | CCOc1ccc2ccccc2c1/C=N/NC(=O)c1ccncc1 | > 80 µM (inactive)
71 | O=C(CNC(=O)c1ccccc1)NCC(=O)OCC(=O)c1ccc([N+](=O)[O-])cc1 | 67.1 µM
72 | Cc1ccnc(-n2sc3ccccc3c2=O)n1 | 26.4 µM
73 | c1ccc(-c2cn3c(n2)CCc2ccc4cccnc4c2-3)cc1 | > 80 µM (inactive)
74 | O=C(Nc1nnc(S(=O)(=O)N2CCCC2)s1)c1cccc([N+](=O)[O-])c1 | > 80 µM (inactive)
75 | Cc1c(Cl)c([N+](=O)[O-])nn1Cc1ccc(C(=O)N/N=C\c2cccc(Br)c2)o1 | > 80 µM (inactive)
76 | Cc1ccc(N2CC(C(=O)OCC(=O)c3ccc([N+](=O)[O-])cc3)CC2=O)cc1 (stereo not drawn) | > 80 µM (inactive)
77 | O=C(Nc1nnc(S(=O)(=O)N2CCOCC2)s1)c1ccc(F)cc1 | 56.9 µM
78 | O=c1c2cc(C(F)(F)F)ccc2sn1-c1ccccc1 | 20.3 µM
79 | CCN1CCCC1CNC(=O)c1ccc2c(c1)NC(=O)/C(=C\c1ccccc1F)S2 (stereo not drawn) | 8.64 µM
80 | COc1cc(N2C(=O)C=CC2=O)ccc1N1C(=O)C=CC1=O | 19.5 µM
81 | CCN1CCN(c2nc(C)nc3c2sc(=S)n3C)CC1 | > 80 µM (inactive)
82 | CCN(CC)c1ccc(NC(=O)c2ccccc2Br)cc1S(=O)(=O)Nc1ccccc1OC | 59.2 µM
83 | COc1cc(C(=O)O/N=C2\C=CC(=O)C=C2C)cc(OC)c1OC | > 80 µM (inactive)
84 | CC(C)Sc1nnc(NC(=O)c2ccc3c(c2)OCO3)s1 | 29.5 µM
85 | COC(=O)[C@H](C)NC(=O)c1cc2c(cn1)[nH]c1ccccc12 | 51 µM
86 | CCOc1ccc(NC(=O)Cn2sc3nc(C)cc(C)c3c2=O)cc1 | 37.5 µM
87 | COc1ccc2nc3cc(Cl)ccc3c(Nc3ccc(O)c(CN4CCN(C)CC4)c3)c2c1 | > 80 µM (inactive)
88 | C[C@]12CC[C@@H]3c4ccc(O)c(O)c4CC[C@H]3[C@@H]1CC[C@@H]2O | 41.3 µM

Row | Structure (SMILES) | IC50
89 | CCc1ccc(OCC(=O)N/N=C/c2cc([N+](=O)[O-])ccc2N2CCOCC2)cc1 | > 80 µM (inactive)
90 | Cc1cccc(-n2c(=S)[nH]c3sc4c(c3c2=O)CCc2ccccc2-4)c1 | 40.9 µM
91 | Nc1c(O)cccc1C(=O)O | 40.9 µM
92 | COCc1cc(=O)n2[nH]c(C(C)(C)C)cc2n1 | 43.2 µM
93 | Cc1ccc(-c2c(C(=O)N/N=C/c3cccs3)nnn2-c2nonc2N)cc1 | > 80 µM (inactive)
94 | O=C1CCN(c2ccccc2)N1 | > 80 µM (inactive)
95 | O=C(CNC(=O)c1ccco1)OCC(=O)c1ccc([N+](=O)[O-])cc1 | 50.9 µM
96 | CC(C)c1nnc(NC(=O)c2sc3ccccc3c2Cl)s1 | 35.5 µM
97 | CCCN1CCc2cc(O)cc3c2[C@H]1Cc1ccc(O)c(O)c1-3 | > 80 µM (inactive)
98 | Cc1ccc(S(=O)(=O)Nc2nc(C)c(C(=O)N/N=C/c3ccccc3)s2)cc1 | 31 µM
99 | Cc1ccc(NC(=O)c2cc(C)n(-c3ccccc3)c2C)cc1 | > 80 µM (inactive)
100 | COc1cc(NCc2ccccc2O)c2ncccc2c1 | 35 µM
101 | Cc1ccc(Nc2cc(C)c(O)c(C)c2)cc1 | > 80 µM (inactive)
102 | O=C(Nc1ccccn1)c1sc2cc([N+](=O)[O-])ccc2c1Cl | > 80 µM (inactive)
103 | O=C(NC1=CC(=O)c2ccccc2C1=O)c1ccccc1 | 38.2 µM
104 | CCc1ccc(S(=O)(=O)Nc2cc(SCC(=O)O)c(O)c3ccccc23)cc1 | 44.6 µM
105 | O=C(Cn1sc2ccccc2c1=O)Nc1ccc(Cl)cc1 | 16 µM
106 | O=C(Nc1nnc(S(=O)(=O)N2CCOCC2)s1)c1cccc(Br)c1 | 60.2 µM
107 | CC1=CC(C)(C)Nc2ccc(OC(=O)CN3C(=O)CCC3=O)cc21 | 63.2 µM
108 | CCCCC1C(=O)N(c2ccccc2)N(c2ccc(O)cc2)C1=O (stereo not drawn) | > 80 µM (inactive)
